The target of this assay is T1, human 11β-HSD1 (Homo sapiens, UniProt P28845).
T1 construct: host or cells: microsome fraction
Description: Enzymatic 11beta-HSD1 test (SPA-based detection). It is filed as biochemical. Conditions: human 11β-HSD1 microsome fraction, [1,2-3H]-cortisone substrate, NADPH, 37° C. 1 hour, read-out: IC50 (nM), Biological activity in nanomolar. As to the method:
Enzymatic 11beta-HSD1 Test:
First of all, 20 μl of the human 11β-HSD1 microsome fraction (0.2 μg of protein), prepared in 50 mM HEPES, 0.1% BSA (w/v), were applied to a plate with 384 wells. The test compounds (0.09 μl) were applied to the assay plate in 100% DMSO. The reaction was started by addition of 20 μl of [1,2-^3H]-cortisone (0.1 μCi/[…]) in assay buffer comprising 25 mM HEPES, 100 mM KCl, 5 mM NaCl, 2 mM MgCl2 and 0.25 mM NADPH. The plate was agitated at 37° C. for 1 hour. At the same time, a stop solution comprising 20 mg/ml SPA-PVT beads, 1.6 mg/ml monoclonal cortisol antibody and 0.01 mM SSR110887 (inhibitor from the Biovitrium patent) in 50 mM HEPES, 1 M NaCl and 1 M KCl was stirred at room temperature. To stop the reaction, 25 μl of the stop solution were added to each well. The plate was agitated gently at room temperature for 1 further hour and then centrifuged at 500 gav for 1 min, in order that the SPA beads could settle out. […] The comparative compound was glycyrrhetinic acid.
Protein and radioactive substrate were dispensed with a Biomek FX unit (Beckman Coulter) for handling liquids. The test compounds were added with a Cybi-Well equipped with a 90 n1 pin tool (CyBio).
Lit.: Solly S, Mundt S S, Zokian H J, Juy-Fang Ding G, Hermanowski-Vosatka A, Strulovici B and Zheng W. High-throughput screening of 11β-Hydroxysteroid dehydrogenase type 1 in scintillation proximity format.

SMILES strings stand for the structures.

T1 sequence (P28845 whole entry): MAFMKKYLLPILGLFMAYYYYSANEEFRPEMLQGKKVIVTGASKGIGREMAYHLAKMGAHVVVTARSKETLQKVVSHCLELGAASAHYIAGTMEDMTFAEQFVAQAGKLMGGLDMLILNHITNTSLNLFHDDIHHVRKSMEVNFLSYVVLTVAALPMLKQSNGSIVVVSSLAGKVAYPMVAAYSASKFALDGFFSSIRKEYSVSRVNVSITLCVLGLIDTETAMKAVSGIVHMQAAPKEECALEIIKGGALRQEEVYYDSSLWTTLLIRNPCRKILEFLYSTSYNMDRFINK

One may read the IC50 as the concentration that inhibits the measured activity by half. For `CC1(C)OC(N[C@@H](CS(N)(=O)=O)c2ccc(F)cc2)=NS(=O)(=O)C1(C)C` (single isomer, unassigned) [Example 14], the IC50 is 10 nM.

For `COCC1(C)OC(NC2CCCCC2)=NS(=O)(=O)C12CC2` (stereo not shown) [Example 4, Cyclohexyl-(8-methoxymethyl-8-methyl-4,4-dioxo-7-oxa-4lambda6-thia-5-aza-spiro[2.5]oct-5-en-6-yl)-amine], the IC50 worked out at 462 nM.

As to `CC1(C)OC(N[C@@H](CCO)c2ccccc2)=NS(=O)(=O)C12CC2` [Example 5, (S)-3-(8,8-Dimethyl-4,4-dioxo-7-oxa-4lambda6-thia-5-aza-spiro[2.5]oct-5-en-6-ylamino)-3-phenyl-propan-1-ol], the IC50 is 37 nM.

For the molecule `CC1(COCc2ccccc2)OC(NC2CCCCC2)=NS(=O)(=O)C12CC2` (stereo not shown) [Example 6, (8-Benzyloxymethyl-8-methyl-4,4-dioxo-7-oxa-4lambda6-thia-5-aza-spiro[2.5]oct-5-en-6-yl)-cyclohexyl-amine], the half-maximal inhibitory concentration (IC50) was determined as 73 nM.

Turning to `CC1(CO)OC(NC2CCCCC2)=NS(=O)(=O)C12CC2` (stereo not shown) [Example 7, (6-Cyclohexylamino-8-methyl-4,4-dioxo-7-oxa-4lambda6-thia-5-aza-spiro[2.5]oct-5-en-8-yl)-methanol], the half-inhibitory concentration (IC50) is 786 nM.

Consider `CC1(C)OC(NC23CCC(F)(CC2)CC3)=NS(=O)(=O)C12CC2` [Example 8, (8,8-Dimethyl-4,4-dioxo-7-oxa-4lambda6-thia-5-aza-spiro[2.5]oct-5-en-6-yl)-(4-fluoro-bicyclo[2.2.2]oct-1-yl)-amine], for which the IC50 is 22 nM.

Take `CC1(C)OC(NC23CCC(F)(CC2)CC3)=NS(=O)(=O)C1(C)C` [Example 9, (4-Fluoro-bicyclo[2.2.2]oct-1-yl)-(5,5,6,6-tetramethyl-4,4-dioxo-5,6-dihydro-4H-4lambda6-[1,4,3]oxathiazin-2-yl)-amine]: the IC50 was found to be 4 nM.

With `CC1(C(F)(F)F)OC(NC2CCCCC2)=NS(=O)(=O)C12CC2` (stereo not shown) [Example 13, Cyclohexyl-(8-methyl-4,4-dioxo-8-trifluoromethyl-7-oxa-4lambda6-thia-5-aza-spiro[2.5]oct-5-en-6-yl)-amine], the IC50 was 19 nM.

As for `CC1(C)OC(NC23CCC(CC2)CC3)=NS(=O)(=O)C1(C)C` [Example 15, Bicyclo[2.2.2]oct-1-yl-(5,5,6,6-tetramethyl-4,4-dioxo-5,6-dihydro-4H-4lambda6-[1,4,3]oxathiazin-2-yl)-amine], the IC50 turned out to be 4 nM.

For the molecule `CC(C)(O)C[C@H](NC1=NS(=O)(=O)C(C)(C)C(C)(C)O1)c1cccnc1` [Example 16, (S)-2-Methyl-4-pyridin-3-yl-4-(5,5,6,6-tetramethyl-4,4-dioxo-5,6-dihydro-4H-4lambda6-[1,4,3]oxathiazin-2-ylamino)-butan-2-ol], the half-inhibitory concentration (IC50) was 586 nM.

Consider `CC1(C)OC(N[C@H]2CCC[C@H](O)C2)=NS(=O)(=O)C1(C)C` [Example 18, (1S,3S)-3-(5,5,6,6-Tetramethyl-4,4-dioxo-5,6-dihydro-4H-4lambda6-[1,4,3]oxathiazin-2-ylamino)-cyclohexanol], for which the half-inhibitory concentration (IC50) worked out at 560 nM.

In the case of `C[C@H](NC1=NS(=O)(=O)C(C)(C)C(C)(C)O1)c1ccccc1F` [Example 21, [(S)-1-(2-Fluoro-phenyl)-ethyl]-(5,5,6,6-tetramethyl-4,4-dioxo-5,6-dihydro-4H-4lambda6-[1,4,3]oxathiazin-2-yl)-amine], the IC50 was determined as 5 nM.

Turning to `CC1(C)OC(N[C@@H]2CCC[C@@H](O)C2)=NS(=O)(=O)C1(C)C` [Example 25, (1R,3R)-3-(5,5,6,6-Tetramethyl-4,4-dioxo-5,6-dihydro-4H-4lambda6-[1,4,3]oxathiazin-2-ylamino)-cyclohexanol], the IC50 is 289 nM.
